Structures can show the parent of a compound that is named as a salt.
Key:
in vivo = conditions: mouse, ip
[1] = system: reserpine induced hypothermia; assay: Antireserpine activity: antagonism of reserpine induced hypothermia (antidepressant activity); assay type: in vivo; conditions: for Antireserpine Activity in Mice, Relative Potency: relative to Amitriptyline = 1, i.p., reserpine 5 mg/kg i.p.
[2] = system: spontaneous motor activity; assay: Spontaneous motor activity depression (ANIMEX apparatus; CNS depressant activity); assay type: in vivo; conditions: mice
Experimental: (§1) The compounds were administered intraperitoneally and the activities of the compounds were compared with those of Amitriptyline.

tremorine induced tremor = assay: Antitremorine effect (central anticholinergic effect); assay type: in vivo; conditions: mice
Experimental: as §1

mice = conditions: i.p.
traction test = assay: Muscle relaxant action: traction test (CNS depressant activity, neurological deficit); assay type: in vivo; conditions: Mus musculus, ip, mice
Experimental: as §1

[3] = system: electroshock induced tonic extensor; assay: Anticonvulsant activity: antagonism of electroshock induced tonic extensor; assay type: in vivo; conditions: Mus musculus, ip, mice, dose which prevents 50% of each response
Experimental: as §1

Row | SMILES | LD50 (in vivo) | Antireserpine Activity in Mice, Relative Potency [1] | ED50 ([2]; Mus musculus, ip, ANIMEX apparatus) | CNS depressant action (in words) ([2]; i.p., traction test and spontaneous motor activity) | ED50 (tremorine induced tremor; Mus musculus, ip, tremorine induced tremor) | anticholinergic action (in words) (tremorine induced tremor; i.p.) | toxicity (in words) (mice) | ED50 (traction test) | antireserpine activity (in words) ([1]; mice, i.p., compared with Amitriptyline) | ED50 [3]
1 | CC(c1ccccc1)c1ccccc1OCCCN(C)C (centres unmarked) [2-(3-dimethylaminopropoxy)diphenylmethylmethane] | 155 mg/kg | 0.34 |  |  |  |  |  |  |  | 
2 | CC(c1ccccc1)c1ccccc1OCCCCN(C)C (centres unmarked) [2-(4-dimethylaminobutoxy)diphenylmethylmethane hydrochloride] | 110 mg/kg | 0.36 |  |  |  |  |  |  |  | 
3 | CNCCCCOc1ccccc1C(C)c1ccccc1 (centres unmarked) [2-(4-methylaminobutoxy)diphenylmethylmethane hydrochloride] | 140 mg/kg | 0.66 | 32 mg/kg | weak CNS depressant | 20 mg/kg | weak CNS depressant and anticholinergic action | low toxicity | > 60 mg/kg | antireserpine activity comparable to that of Amitriptyline | 25 mg/kg

Source: US4100299A, “Pharmaceutically active 2-omega-aminoalkoxydiphenylmethylmethanes” (Mitsubishi Chemical Industries Limited, priority 1977, dated 1978)
